Values of other authors, collected in patent US6013636A, “Anthelmintic macrocyclic lactone compositions” (Ashmont Holdings Limited, priority 1995, dated 2000).

Columns and labels:
[1] = sesame oil, soya bean oil and corn oil

| Molecule | Stability in water | Solubility in oils [1] |
| --- | --- | --- |
| CO[C@H]1C[C@H](O[C@H]2[C@H](C)O[C@@H](O[C@@H]3/C(C)=C/C[C@@H]4C[C@@H](C[C@]5(C=C[C@H](C)[C@@H](C6CCCCC6)O5)O4)OC(=O)[C@@H]4C=C(C)[C@@H](O)[C@H]5OC/C(=C\C=C\[C@@H]3C)[C@]54O)C[C@@H]2OC)O[C@@H](C)[C@@H]1O [doramectin] | oxidise and break down in water | sparingly soluble |
| CO/N=C1\C[C@]2(C[C@@H]3C[C@@H](C/C=C(\C)C[C@@H](C)/C=C/C=C4\CO[C@@H]5[C@H](O)C(C)=C[C@@H](C(=O)O3)[C@]45O)O2)O[C@H](/C(C)=C/C(C)C)[C@H]1C [moxidectin] | oxidise and break down in water | sparingly soluble |
| ivermectin | oxidise and break down in water | sparingly soluble |
